By IC50 is commonly meant the midpoint of a concentration-inhibition curve.

For the test, the target named is T1, LIMK2 (Homo sapiens, UniProt P53671).
T1 construct: His tag (histidine-tagged; pFastBacHT vector); made in house; host or cells: Sf9 insect cells (BAC-to-BAC baculovirus system)
T1 sequence (P53671 whole entry): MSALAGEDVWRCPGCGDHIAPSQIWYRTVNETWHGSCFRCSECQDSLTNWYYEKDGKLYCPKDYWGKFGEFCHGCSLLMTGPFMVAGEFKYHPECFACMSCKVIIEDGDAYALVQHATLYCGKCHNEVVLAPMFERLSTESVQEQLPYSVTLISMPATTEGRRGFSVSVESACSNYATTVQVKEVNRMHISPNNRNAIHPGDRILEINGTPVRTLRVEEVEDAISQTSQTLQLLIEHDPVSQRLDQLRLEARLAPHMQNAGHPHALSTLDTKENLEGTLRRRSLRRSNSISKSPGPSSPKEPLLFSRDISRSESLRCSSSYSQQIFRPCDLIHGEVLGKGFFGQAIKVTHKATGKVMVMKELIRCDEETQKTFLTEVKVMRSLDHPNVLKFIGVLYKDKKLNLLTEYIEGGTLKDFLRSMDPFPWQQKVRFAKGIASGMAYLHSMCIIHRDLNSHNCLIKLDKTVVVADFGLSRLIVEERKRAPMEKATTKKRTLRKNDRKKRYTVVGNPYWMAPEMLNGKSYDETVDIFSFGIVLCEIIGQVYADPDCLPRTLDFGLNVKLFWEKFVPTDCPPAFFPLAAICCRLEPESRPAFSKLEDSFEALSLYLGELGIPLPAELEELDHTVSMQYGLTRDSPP
The test can be described thus: In vitro LIMK2 inhibition assay (33P incorporation into myelin basic protein flash plates). In kind it is biochemical. The method, then:
Using the procedures described herein and methods known in the art, the additional compounds listed below in Table 1 were prepared. The LIMK2 IC50 data that is provided below for some of the compounds was determined using the assay described in Example 32.
An in vitro assay used to identify LIMK2 inhibitors was developed. The analytical readout was the incorporation of ^33P from ATP substrate into immobilized myelin basic protein coated flash plates (Perkin Elmer Biosciences), which were counted on a scintillation counter equipped with a plate reader (TopCount, Packard Bioscience, Meriden, Conn.). Using 384 well flat MBP flashplates, total assay volume was 50 μl. The HTS program utilized a Biomek FX for dilution.
For each assay, the ingredients and conditions were as follows: 200 ng of enzyme was incubated in assay buffer (1× assay buffer contains 30 mM HEPES (pH 8.0), 5 mM DTT, and 10 mM MgCl2), 10 μM ATP, 0.2 μCi [gamma-^33P]-ATP and 10 μM of potential inhibitory compound. The reaction was incubated at room temperature for 60 minutes, washed 3 times with 75 μl of stop/wash buffer (1× stop/was buffer contains 50 mM EDTA and 20 mM Tris (pH 7.4)), and then the plates were read on the scintillation counter. Different concentrations of staurosporine (400 nM, 200 nM, 100 nM and 50 nM; purchased from BIOMOL (Plymouth Meeting, Pa.)) were used as controls on each plate.
Consider `Cc1c[nH]c2ncnc(N3CCC(CNC(=O)C4(N)CC4)(C(=O)Nc4cccc(OC(=O)N(C)C)c4)CC3)c12` [3-(4-((1-aminocyclopropanecarboxamido)methyl)-1-(5-methyl-7H-pyrrolo[2,3-d]pyrimidin-4-yl)piperidine-4-carboxamido)phenyl dimethylcarbamate], for which the half-inhibitory concentration (IC50) was under 250 nM.

`Cc1c[nH]c2ncnc(N3CCC(CNC(=O)c4cnn(C)c4)(C(=O)Nc4cccc(OC(=O)N(C)C)c4)CC3)c12` [3-(4-((1-methyl-1H-pyrazole-4-carboxamido)methyl)-1-(5-methyl-7H-pyrrolo[2,3-d]pyrimidin-4-yl)piperidine-4-carboxamido)phenyl dimethylcarbamate] came in with a half-maximal inhibitory concentration (IC50) of under 250 nM.

`Cc1c[nH]c2ncnc(N3CCC(CNC(=O)C4(NC(=O)OC(C)(C)C)CC4)(C(=O)Nc4cccc(OC(=O)N(C)C)c4)CC3)c12` [3-(4-((1-tert-butoxycarbonylaminocyclopropanecarboxamido)methyl)-1-(5-methyl-7H-pyrrolo[2,3-d]pyrimidin-4-yl)piperidine-4-carboxamido)phenyl dimethylcarbamate]: the 50% inhibitory concentration (IC50) is under 250 nM.

For `Cc1c[nH]c2ncnc(N3CCC(Cc4ncc[nH]4)(C(=O)Nc4cccc(OC(=O)N(C)C)c4)CC3)c12` [3-(4-((1H-imidazol-2-yl)methyl)-1-(5-methyl-7H-pyrrolo[2,3-d]pyrimidin-4-yl)piperidine-4-carboxamido)phenyl dimethylcarbamate], the IC50 is under 250 nM.

For `Cc1c[nH]c2ncnc(N3CCC(Cc4nnn[nH]4)(C(=O)Nc4cccc(OC(=O)N(C)C)c4)CC3)c12` [3-(4-((1H-tetrazol-5-yl)methyl)-1-(5-methyl-7H-pyrrolo[2,3-d]pyrimidin-4-yl)piperidine-4-carboxamido)phenyl dimethylcarbamate], the half-maximal inhibitory concentration (IC50) was under 250 nM.

As for `Cc1c[nH]c2ncnc(N3CCC(CNC(=O)CC4NC(=O)NC4=O)(C(=O)Nc4cccc(OC(=O)N(C)C)c4)CC3)c12` (stereo not drawn) [3-(4-((2-(2,5-dioxoimidazolidin-4-yl)acetamido)methyl)-1-(5-methyl-7H-pyrrolo[2,3-d]pyrimidin-4-yl)piperidine-4-carboxamido)phenyl dimethylcarbamate], the 50% inhibitory concentration (IC50) was under 250 nM.

Consider `COCCOCC(=O)NCC1(C(=O)Nc2cccc(OC(=O)N(C)C)c2)CCN(c2ncnc3[nH]cc(C)c23)CC1` [3-(4-((2-(2-methoxyethoxy)acetamido)methyl)-1-(5-methyl-7H-pyrrolo[2,3-d]pyrimidin-4-yl)piperidine-4-carboxamido)phenyl dimethylcarbamate], for which the concentration for half-maximal inhibition (IC50) was under 250 nM.

With `Cc1c[nH]c2ncnc(N3CCC(CNC(=O)CN(C)C)(C(=O)Nc4cccc(OC(=O)N(C)C)c4)CC3)c12` [3-(4-((2-(dimethylamino)acetamido)methyl)-1-(5-methyl-7H-pyrrolo[2,3-d]pyrimidin-4-yl)piperidine-4-carboxamido)phenyl dimethylcarbamate], the IC50 was under 250 nM.

Regarding `Cc1c[nH]c2ncnc(N3CCC(CNC(=O)CN)(C(=O)Nc4cccc(OC(=O)N(C)C)c4)CC3)c12` [3-(4-((2-aminoacetamido)methyl)-1-(5-methyl-7H-pyrrolo[2,3-d]pyrimidin-4-yl)piperidine-4-carboxamido)phenyl dimethylcarbamate], the concentration for half-maximal inhibition (IC50) was under 250 nM.

For the molecule `COCC(=O)NCC1(C(=O)Nc2cccc(OC(=O)N(C)C)c2)CCN(c2ncnc3[nH]cc(C)c23)CC1` [3-(4-((2-methoxyacetamido)methyl)-1-(5-methyl-7H-pyrrolo[2,3-d]pyrimidin-4-yl)piperidine-4-carboxamido)phenyl dimethylcarbamate], the half-inhibitory concentration (IC50) is under 250 nM.

Molecule `Cc1c[nH]c2ncnc(N3CCC(CNC(=O)C(C)(CO)CO)(C(=O)Nc4cccc(OC(=O)N(C)C)c4)CC3)c12` [3-(4-((3-hydroxy-2-(hydroxymethyl)-2-methylpropanamido)methyl)-1-(5-methyl-7H-pyrrolo[2,3-d]pyrimidin-4-yl)piperidine-4-carboxamido)phenyl dimethylcarbamate] returned a 50% inhibitory concentration (IC50) of under 250 nM.

For `COCCC(=O)NCC1(C(=O)Nc2cccc(OC(=O)N(C)C)c2)CCN(c2ncnc3[nH]cc(C)c23)CC1` [3-(4-((3-methoxypropanamido)methyl)-1-(5-methyl-7H-pyrrolo[2,3-d]pyrimidin-4-yl)piperidine-4-carboxamido)phenyl dimethylcarbamate], the IC50 is under 250 nM.

Turning to `Cc1cc(C(=O)NCC2(C(=O)Nc3cccc(OC(=O)N(C)C)c3)CCN(c3ncnc4[nH]cc(C)c34)CC2)n[nH]1` [3-(4-((5-methyl-1H-pyrazole-3-carboxamido)methyl)-1-(5-methyl-7H-pyrrolo[2,3-d]pyrimidin-4-yl)piperidine-4-carboxamido)phenyl dimethylcarbamate], the IC50 was under 250 nM.

In the case of `Cc1c[nH]c2ncnc(N3CCC(CNS(=O)(=O)N(C)C)(C(=O)Nc4cccc(OC(=O)N(C)C)c4)CC3)c12` [3-(4-((N,N-dimethylsulfamoylamino)methyl)-1-(5-methyl-7H-pyrrolo[2,3-d]pyrimidin-4-yl)piperidine-4-carboxamido)phenyl dimethylcarbamate], the 50% inhibitory concentration (IC50) is under 250 nM.

Turning to `Cc1c[nH]c2ncnc(N3CCC(Cc4nnnn4Cc4ccccc4)(C(=O)Nc4cccc(OC(=O)N(C)C)c4)CC3)c12` [3-(4-((l-benzyl-1H-tetrazol-5-yl)methyl)-1-(5-methyl-7H-pyrrolo[2,3-d]pyrimidin-4-yl)piperidine-4-carboxamido)phenyl dimethylcarbamate], the IC50 is under 250 nM.

For `COC(=O)NCC1(C(=O)Nc2cccc(OC(=O)N(C)C)c2)CCN(c2ncnc3[nH]cc(C)c23)CC1` [3-(4-((methoxycarbonylaminomethyl)-1-(5-methyl-7H-pyrrolo[2,3-d]pyrimidin-4-yl)piperidine-4-carboxamido)phenyl dimethylcarbamate], the IC50 was under 250 nM.

`CC(=O)NCC1(C(=O)Nc2cccc(OC(=O)N(C)C)c2)CCN(c2ncnc3[nH]cc(C)c23)CC1` [3-(4-(acetamidomethyl)-1-(5-methyl-7H-pyrrolo[2,3-d]pyrimidin-4-yl)piperidine-4-carboxamido)phenyl dimethylcarbamate] yielded a concentration for half-maximal inhibition (IC50) of under 250 nM.

On to `CCN(CC)C(=O)Oc1cccc(NC(=O)C2(CN)CCN(c3ncnc4[nH]cc(C)c34)CC2)c1` [3-(4-(aminomethyl)-1-(5-methyl-7H-pyrrolo[2,3-d]pyrimidin-4-yl)piperidine-4-carboxamido)phenyl diethylcarbamate], for which the half-inhibitory concentration (IC50) is under 250 nM.

`Cc1c[nH]c2ncnc(N3CCC(CN)(C(=O)Nc4cccc(OC(=O)N5CCCC5)c4)CC3)c12` [3-(4-(aminomethyl)-1-(5-methyl-7H-pyrrolo[2,3-d]pyrimidin-4-yl)piperidine-4-carboxamido)phenyl pyrrolidine-1-carboxylate] registered an IC50 of under 250 nM.

In turn, `Cc1c[nH]c2ncnc(N3CCC(CN=[N+]=[N-])(C(=O)Nc4cccc(OC(=O)N(C)C)c4)CC3)c12` [3-(4-(azidomethyl)-1-(5-methyl-7H-pyrrolo[2,3-d]pyrimidin-4-yl)piperidine-4-carboxamido)phenyl dimethylcarbamate] returned an IC50 of under 250 nM.

The molecule `C=CCC1(C(=O)Nc2cccc(OC(=O)N(C)C)c2)CCN(c2ncnc3[nH]cc(C)c23)CC1` [3-(4-allyl-1-(5-methyl-7H-pyrrolo[2,3-d]pyrimidin-4-yl)piperidine-4-carboxamido)phenyl dimethylcarbamate] registered an IC50 of under 250 nM.

`Cc1c[nH]c2ncnc(N3CCC(C#N)(C(=O)Nc4cccc(OC(=O)N(C)C)c4)CC3)c12` [3-(4-cyano-1-(5-methyl-7H-pyrrolo[2,3-d]pyrimidin-4-yl)piperidine-4-carboxamido)phenyl dimethylcarbamate] showed an IC50 of under 250 nM.

Consider `Cc1c[nH]c2ncnc(N3CCC(C(=O)Nc4cccc(OC(=O)N(C)C)c4)(C(C)C)CC3)c12` [3-(4-isopropyl-1-(5-methyl-7H-pyrrolo[2,3-d]pyrimidin-4-yl)piperidine-4-carboxamido)phenyl dimethylcarbamate], for which the IC50 was under 250 nM.

In turn, `Cc1c[nH]c2ncnc(N3CCC(C)(C(=O)Nc4cccc(OC(=O)N5CCOCC5)c4)CC3)c12` [3-(4-methyl-1-(5-methyl-7H-pyrrolo[2,3-d]pyrimidin-4-yl)piperidine-4-carboxamido)phenyl morpholine-4-carboxylate] registered a concentration for half-maximal inhibition (IC50) of under 250 nM.

With `CNc1nc2ccc(NC(=O)C3(CN)CCN(c4ncnc5[nH]cc(C)c45)CC3)cc2o1` [4-(aminomethyl)-1-(5-methyl-7H-pyrrolo[2,3-d]pyrimidin-4-yl)-N-(2-(methylamino)benzo[d]oxazol-6-yl)piperidine-4-carboxamide], the half-maximal inhibitory concentration (IC50) was under 500 nM.

The molecule `Cc1c[nH]c2ncnc(N3CCC(CN)(C(=O)Nc4cccc(-c5cnco5)c4)CC3)c12` [4-(aminomethyl)-1-(5-methyl-7H-pyrrolo[2,3-d]pyrimidin-4-yl)-N-(3-(oxazol-5-yl)phenyl)piperidine-4-carboxamide] displayed a half-maximal inhibitory concentration (IC50) of under 250 nM.

For the molecule `Cc1c[nH]c2ncnc(N3CCC(CN)(C(=O)Nc4cccc(C(F)(F)F)c4)CC3)c12` [4-(aminomethyl)-1-(5-methyl-7H-pyrrolo[2,3-d]pyrimidin-4-yl)-N-(3-(trifluoromethyl)phenyl)piperidine-4-carboxamide], the IC50 was under 250 nM.

The values above are taken from US8450332B2, “LIMK2 inhibitors, compositions comprising them, and methods of their use” (Lexicon Pharmaceuticals, Inc., priority 2008, dated 2013).
